Results taken from US20100108086A1, “TOBACCO AND TOBACCO PACKAGING MATERIAL FOR PREVENTING OR REDUCING TOBACCO-ASSOCIATED INJURY IN THE AERODIGESTIVE TRACT OF A SUBJECT” (Technion Research & Development Foundation Ltd, priority 2007, published 2010).

What was measured:
oral peroxidase (OPO) = test: Oral peroxidase (OPO) activity in saliva, NBS-SCN assay; assay type: biochemical, human; conditions: for OPO activity in presence of aldehydes present in TS: 80 μM acrolein, 20 μM crotonaldehyde (FIG. 11)
lymphocytes [1] = test: Western immunoblotting analysis of lymphocyte protein carbonylation; assay type: cell-based, human
From the text: Western immunoblotting analysis of protein carbonylation: Salivary proteins were separated by SDS-PAGE using a 10% gel and electro-blotted onto nitrocellulose membranes, as previously described (14). The Oxyblot Kit (Intergen Co, Purchase N.Y.) was used with anti-dinitrophenyhydrazine (DNPH) antibodies to label carbonylated proteins. Protein carbonylation levels were then visualized by reacting labelled blots with a secondary HRP-conjugated anti-rabbit antibody followed by ECL detection of secondarily labelled proteins, as previously described (14).
(§1) Lymphocyte isolation: Blood from 10 consenting, healthy, non-smoking subjects, 5 males and 5 females ranging from 18-55 years of age, was drawn into EDTA-containing vacutainers. Lymphocytes were isolated by Ficoll-Hypaque (Sigma) gradient centrifugation according to the manufacturer's instructions and lymphocytes were suspended at 10^7 cells/ml PBS (Beit-Ha'emek Industries, Israel), and used immediately in experiments.
Treatment of lymphocytes with TS in the presence of saliva: Exposure of lymphocytes to TS was carried out by attaching a Time cigarette (capable of removing particles>[…] in diameter) in which the filter tip was removed to a Cambridge filter which was combined with a vacuum system to aspirate gas-phase TS inside sealed 250 ml flasks containing lymphocytes suspended in 12-15 ml PBS, as previously described (14, 15). A reproducible vacuum was created in the flask and upon application of vacuum for 5 s, 80-100 ml of TS from the lit cigarette was drawn into the flask. […] Saliva treatment of lymphocytes was performed by suspending these in PBS supplemented with 30% (v/v) saliva. Following treatment with the TS of 0.5 cigarettes, flasks were incubated at 37° C. for 20 min in a metabolic shaker and subjected to a further 4 treatments with TS, as described above.
Western immunoblotting analysis of lymphocyte protein carbonylation: Lymphocytes were washed twice in PBS following treatment by centrifugation at 2,000 rpm for 2 minutes to remove saliva and other components of the incubation medium. Lymphocytes were then centrifuged at 14,000 rpm for 1 minute and lysed by sonication for 10 seconds in lysis buffer containing 20 mM Tris pH 7.4, 1 mM EGTA, 1 mM PMSF, 50 μM NaVO4 and 50 mM NaF. Lysates were centrifuged at 14,000 rpm for 1 minute and supernatants were harvested for analysis. Carbonylation analysis was performed as described above.

lymphocytes [2] = test: Lymphocyte survival, Trypan Blue exclusion assay; assay type: cell-based, human; conditions: for % survival of TS + saliva-treated lymphocytes, Mean: 1 mM GSH; for death rates at 80 minutes / lymphocyte survival rates after 20 minutes: both, human
Protocol: Saliva collection: Saliva was collected from healthy subjects, 3 males and 3 females ranging from 21-47 years of age, under non-stimulatory conditions in a quiet room during the morning between 8 am and noon. Saliva collection was performed at least 1 h after eating by spitting into a recipient for 10 minutes, as previously described (43). Following collection, saliva was immediately centrifuged at 800×g for 10 min at 4° C. to remove cells and cell debris and the resulting supernatant was used for biochemical analyses.
as §1
A reproducible vacuum was created in the flask and upon application of vacuum for 5 s, 80-100 ml of TS from the lit cigarette was drawn into the flask. […] Saliva treatment of lymphocytes was performed by suspending these in PBS supplemented with 30% (v/v) saliva. Following treatment with the TS of 0.5 cigarettes, flasks were incubated at 37° C. for 20 min in a metabolic shaker and subjected to a further 4 treatments with TS, as described above.
Measurement of lymphocyte survival: Lymphocyte viability was assessed by Trypan Blue exclusion assay.

MPO = target: T1, MPO (Homo sapiens, UniProt P05164); test: Control MPO activity (commercial MPO) in presence of dapsone; assay type: biochemical; conditions: 150 μM dapsone
T1 construct: purchased
T1 sequence (P05164 49-745): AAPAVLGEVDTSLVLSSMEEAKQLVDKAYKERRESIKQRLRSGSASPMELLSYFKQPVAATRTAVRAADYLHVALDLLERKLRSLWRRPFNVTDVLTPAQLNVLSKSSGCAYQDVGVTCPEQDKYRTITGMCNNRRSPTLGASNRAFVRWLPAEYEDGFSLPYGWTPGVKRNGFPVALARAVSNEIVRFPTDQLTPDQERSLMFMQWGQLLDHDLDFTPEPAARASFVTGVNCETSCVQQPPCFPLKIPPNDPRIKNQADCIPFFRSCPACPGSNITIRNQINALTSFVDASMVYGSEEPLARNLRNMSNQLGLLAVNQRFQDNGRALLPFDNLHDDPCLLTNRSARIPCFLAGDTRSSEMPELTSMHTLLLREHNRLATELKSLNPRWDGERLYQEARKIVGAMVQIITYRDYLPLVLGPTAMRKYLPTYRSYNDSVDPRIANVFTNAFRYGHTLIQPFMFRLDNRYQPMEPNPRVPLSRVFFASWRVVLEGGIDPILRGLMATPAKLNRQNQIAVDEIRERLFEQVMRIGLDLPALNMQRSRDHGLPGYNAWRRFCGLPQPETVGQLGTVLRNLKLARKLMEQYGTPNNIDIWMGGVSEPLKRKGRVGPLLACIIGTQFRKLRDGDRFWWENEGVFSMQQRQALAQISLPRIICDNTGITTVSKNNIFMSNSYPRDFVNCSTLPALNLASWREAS
Protocol: FIG. 7 is a data plot depicting the effect of increasing concentrations of dapsone (4-aminophenylsulfone) on OPO activity in TS-treated saliva. Abbreviations: NO.1, NO.2, NO.3, NO4 and NO.5 correspond to saliva from 5 different subjects and plasma corresponds to commercial MPO.
Analysis of OPO activity: OPO activity was measured according to the 2-nitrobenzoic-thiocyanate (NBS-SCN) assay, as previously described (20). Briefly, DTNB is reduced to NBS by addition of β-mercaptoethanol and decreases in NBS concentration by reaction with OSCN^−, a product of OPO, are monitored spectrophotometrically by measuring absorbance at 412 nm at pH 5.6 (18). One unit of enzyme activity was defined as the activity required to cleave 1 μmol of NBS/min at 22° C., using a molar extinction coefficient of 12,800 (20).
Thus, in order to determine which of the MPO or SPO activity components of OPO activity are lost as a result of exposure to TS, OPO activity in TS-treated saliva was measured in the presence of increasing concentrations of […] dapsone.

[3] = TS + saliva, 1 mM agent, 80 minutes (FIG. 19)

In the case of `[Cl][Fe]([Cl])[Cl]` [FeCl3], the “inhibition of OPO activity on exposure of saliva” value (oral peroxidase (OPO); 1 mM ascorbate or 100 μM FeCl3, 2 h (FIG. 10)) is reported as “did not inhibit OPO activity”.

In the case of `C/C1=C2/[N-][C@H]([C@H](CC(N)=O)[C@@]2(C)CCC(=O)NC[C@@H](C)OP(=O)([O-])O[C@H]2[C@@H](O)[C@@H](n3cnc4cc(C)c(C)cc43)O[C@@H]2CO)[C@]2(C)N=C(/C(C)=C3N=C(/C=C4N=C1[C@@H](CCC(N)=O)C\4(C)C)[C@@H](CCC(N)=O)[C@]\3(C)CC(N)=O)[C@@H](CCC(N)=O)[C@]2(C)CC(N)=O.[Co+3].[OH-]` [OH—CO, hydroxocobalamin], the “prevention of KCN-associated loss of OPO activity” value (oral peroxidase (OPO); 1 mM OH—CO, saliva treated 2 min with 1 mM KCN (FIG. 15)) is reported as “completely prevent”, the “prevention of loss of OPO activity in TS-treated saliva” value (oral peroxidase (OPO); increasing amounts of OH—CO (0.5, 1, 2 mM, FIG. 14), 40 min after treatment with TS) is reported as “prevent, to a significant extent, the loss of OPO activity” and the “prevention of TS- and KCN-associated loss of OPO activity” value (oral peroxidase (OPO); preincubation of saliva with OH—CO) is reported as “could prevent both TS- and KCN-associated loss of OPO activity”.

In the case of `N[C@@H](CCC(=O)N[C@@H](CS)C(=O)NCC(=O)O)C(=O)O` [GSH, L-γ-glutamyl-1-cysteine-glycine], the “protection assessed by lymphocyte protein carbonylation levels” value (lymphocytes [1]; TS + saliva, 1 mM antioxidant, 20 minutes (FIG. 20)) is reported as “unique protection”, the “protein carbonylation levels in aldehyde-treated lymphocytes” value (lymphocytes [1]; aldehydes + 1 mM GSH, 20 min (FIG. 21)) is reported as “protection” and the “effect on death rate of lymphocytes exposed to TS and saliva” value (lymphocytes [2]) is reported as “partially prevented”. For the same compound, the “% survival of TS + saliva-treated lymphocytes, Mean” value (lymphocytes [2]; 20 minute treatment) was 90.6%, the “% survival of TS + saliva-treated lymphocytes, Mean” value (lymphocytes [2]; 80 minute treatment) was 28.8% and the lymphocyte survival rate (lymphocytes [2]; GSH added in the presence of 20 μM crotonaldehyde, 20 minutes) was 82.3%. For the same compound, the lymphocyte survival rate (lymphocytes [2]; GSH added in the presence of 20 μM crotonaldehyde, 80 minutes) was 81.3%, the lymphocyte survival rate (lymphocytes [2]; GSH added in the presence of 80 μM acrolein, 20 minutes) was 93.3% and the lymphocyte survival rate (lymphocytes [2]; GSH added in the presence of 80 μM acrolein, 80 minutes) was 87.4%. The lymphocyte survival rate (lymphocytes [2]; GSH added in the presence of 2 mM acetaldehyde, 20 minutes) was 93.3%, the lymphocyte survival rate (lymphocytes [2]; GSH added in the presence of 2 mM acetaldehyde, 80 minutes) was 93.6% and the lymphocyte survival rate (lymphocytes [2]; TS + saliva, 1 mM agent, 20 minutes (FIG. 19)) was 93.4%. For the same compound, the lymphocyte survival rate (lymphocytes [2]; [3]) was 24.3% and the “loss of OPO activity in TS-treated saliva in the presence or absence of agent” value (oral peroxidase (OPO); 1 mM agent (FIG. 9)) was “similar”.

For `C=CC=O` [acrolein], the “lymphocyte protein carbonylation levels” value (lymphocytes [1]; 80 μM acrolein + saliva vs acrolein alone, 20 min (FIG. 22)) was “did not enhance carbonylation levels”, the lymphocyte survival rate (lymphocytes [2]; acrolein with saliva (second of the two 'respectively' values, order presumed)) was 66.4% and the lymphocyte survival rate (lymphocytes [2]; acrolein without saliva (first of the two 'respectively' values, order presumed)) was 57.9%. For the same compound, the “death rates at 80 minutes” value (lymphocytes [2]) was 57.3%, the “lymphocyte survival rates after 20 minutes” value (lymphocytes [2]) was 63.3% and the “OPO activity in presence of aldehydes present in TS” value (oral peroxidase (OPO)) was “unaffected”.

With `N#C[S-].[K+]` [KSCN, potassium thiocyanate] the “protection against TS-induced loss of OPO activity” value (oral peroxidase (OPO)) was “significant protection against loss of OPO activity”.

`CC=O` [acetaldehyde] was tested, and the “death rates at 80 minutes” value (lymphocytes [2]) was 92.7%.

For `O=C1O[C@H]([C@@H](O)CO)C(O)=C1O` [ascorbate], the lymphocyte survival rate (lymphocytes [2]; ascorbate (1 mM) added to PBS containing iron as FeCl3 (90 μM), no saliva (FIG. 23, Column 8)) was 77% and the lymphocyte survival rate (lymphocytes [2]; ascorbate (1 mM) added to saliva-containing medium without TS, 20 min (FIG. 23, column 6)) was 78%.

In the case of `C/C=C/C=O` [crotonaldehyde], the “death rates at 80 minutes” value (lymphocytes [2]) is reported as 75.3%, the “lymphocyte survival rates after 20 minutes” value (lymphocytes [2]) is reported as 80.3% and the “OPO activity in presence of aldehydes present in TS” value (oral peroxidase (OPO)) is reported as “unaffected”.

With `CC(=O)N[C@@H](CS)C(=O)O` [NAC, N-acetylcysteine] the “effect on death rate of lymphocytes exposed to TS and saliva” value (lymphocytes [2]) was “did not alter the death rate”.

Compound `CC(=O)N(O)CCCCCNC(=O)CCC(=O)N(O)CCCCCNC(=O)CCC(=O)N(O)CCCCCN` [deferoxamine] has a lymphocyte survival rate (lymphocytes [2]; [3]) of 23.7%.

In the case of `Nc1ccc(S(=O)(=O)c2ccc(N)cc2)cc1` [dapsone, 4-aminophenylsulfone], the “Loss of OPO activity” value (oral peroxidase (OPO); 150 μM dapsone, TS-treated saliva (FIG. 7)) is reported as 60-85%, the “loss of OPO activity in the presence or absence of agent” value (oral peroxidase (OPO); 150 μM dapsone, TS-treated saliva containing ~40% MPO (FIG. 8)) is reported as “similar” and the “control MPO activity” value (MPO) is reported as “unaffected”.

`O=c1[nH]c(=O)c2[nH]c(=O)[nH]c2[nH]1` [uric acid] was tested, and the “lymphocyte protein carbonylation levels” value (lymphocytes [1]; uric acid added to suspension medium instead of saliva, 10 or 100 μM, no TS (FIG. 18)) was “reduced carbonylation levels”.
